Experimental data reported in publication PMC5934274 (Journal of medicinal chemistry, 2016).
Like-named read-outs stand apart in the source and are kept apart here.

How the values were obtained:
PARP1 [1] = assay: In vitro ADP-ribosylation assay, PARP1; assay type: biochemical, human; details: selectivity toward PARP1 and -2 over other PARP family members
PARP2 = details: read-out: KM NAD+ (literature); PARP2 FL row; cited from earlier work
PARP1 [2] = details: read-out: KM NAD+ (literature), cited from earlier work
PARP16 = target: T1, PARP16 (Homo sapiens, UniProt Q8N5Y8); details: read-out: KM NAD+ (literature); PARP16 FL row; cited from earlier work
T1 sequence (Q8N5Y8 1-322): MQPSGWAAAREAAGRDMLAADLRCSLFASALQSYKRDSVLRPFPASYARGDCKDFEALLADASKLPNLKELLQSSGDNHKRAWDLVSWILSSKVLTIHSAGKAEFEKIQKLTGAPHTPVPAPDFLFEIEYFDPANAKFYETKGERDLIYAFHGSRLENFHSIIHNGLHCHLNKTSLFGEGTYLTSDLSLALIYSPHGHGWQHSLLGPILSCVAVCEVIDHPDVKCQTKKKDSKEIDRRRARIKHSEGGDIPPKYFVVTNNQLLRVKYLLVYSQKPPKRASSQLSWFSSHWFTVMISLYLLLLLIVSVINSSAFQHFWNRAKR

PARP14 = PARP14 (Homo sapiens, UniProt Q460N5); assay: In vitro ADP-ribosylation assay, PARP14; assay type: biochemical; details: read-out: KM NAD+; PARP14 ART
PARP10 = target: T2, PARP10 (Homo sapiens, UniProt Q53GL7); details: read-out: KM NAD+ (literature); PARP10 FL row; cited from earlier work
T2 sequence (Q53GL7 1-1025): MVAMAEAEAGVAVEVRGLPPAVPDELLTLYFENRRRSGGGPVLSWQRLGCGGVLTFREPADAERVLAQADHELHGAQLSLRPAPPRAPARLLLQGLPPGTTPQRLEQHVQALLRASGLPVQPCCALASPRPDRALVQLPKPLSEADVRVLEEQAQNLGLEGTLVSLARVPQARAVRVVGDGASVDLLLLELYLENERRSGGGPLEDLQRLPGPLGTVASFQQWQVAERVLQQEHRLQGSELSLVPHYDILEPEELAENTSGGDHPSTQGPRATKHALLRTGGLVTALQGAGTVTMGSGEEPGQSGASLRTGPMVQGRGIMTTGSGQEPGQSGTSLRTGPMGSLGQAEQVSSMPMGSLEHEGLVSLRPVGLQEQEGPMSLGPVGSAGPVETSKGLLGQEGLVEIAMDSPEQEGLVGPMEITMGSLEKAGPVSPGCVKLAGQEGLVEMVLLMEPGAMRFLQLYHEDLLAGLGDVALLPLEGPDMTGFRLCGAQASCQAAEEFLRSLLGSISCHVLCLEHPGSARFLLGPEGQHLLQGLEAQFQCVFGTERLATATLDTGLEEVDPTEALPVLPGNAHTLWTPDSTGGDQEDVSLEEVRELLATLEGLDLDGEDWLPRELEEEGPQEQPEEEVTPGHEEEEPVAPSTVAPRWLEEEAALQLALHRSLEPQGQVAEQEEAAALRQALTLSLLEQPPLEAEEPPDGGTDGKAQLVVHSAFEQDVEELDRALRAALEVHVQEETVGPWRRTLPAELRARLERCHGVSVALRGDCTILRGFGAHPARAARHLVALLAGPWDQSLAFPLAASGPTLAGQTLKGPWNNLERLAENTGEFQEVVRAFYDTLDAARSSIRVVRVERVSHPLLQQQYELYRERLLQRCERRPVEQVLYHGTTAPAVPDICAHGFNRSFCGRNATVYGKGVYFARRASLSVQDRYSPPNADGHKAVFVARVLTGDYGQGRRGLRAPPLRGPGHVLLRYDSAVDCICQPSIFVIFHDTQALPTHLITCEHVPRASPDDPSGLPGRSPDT

Sequence of PARP14 (Q460N5 whole entry): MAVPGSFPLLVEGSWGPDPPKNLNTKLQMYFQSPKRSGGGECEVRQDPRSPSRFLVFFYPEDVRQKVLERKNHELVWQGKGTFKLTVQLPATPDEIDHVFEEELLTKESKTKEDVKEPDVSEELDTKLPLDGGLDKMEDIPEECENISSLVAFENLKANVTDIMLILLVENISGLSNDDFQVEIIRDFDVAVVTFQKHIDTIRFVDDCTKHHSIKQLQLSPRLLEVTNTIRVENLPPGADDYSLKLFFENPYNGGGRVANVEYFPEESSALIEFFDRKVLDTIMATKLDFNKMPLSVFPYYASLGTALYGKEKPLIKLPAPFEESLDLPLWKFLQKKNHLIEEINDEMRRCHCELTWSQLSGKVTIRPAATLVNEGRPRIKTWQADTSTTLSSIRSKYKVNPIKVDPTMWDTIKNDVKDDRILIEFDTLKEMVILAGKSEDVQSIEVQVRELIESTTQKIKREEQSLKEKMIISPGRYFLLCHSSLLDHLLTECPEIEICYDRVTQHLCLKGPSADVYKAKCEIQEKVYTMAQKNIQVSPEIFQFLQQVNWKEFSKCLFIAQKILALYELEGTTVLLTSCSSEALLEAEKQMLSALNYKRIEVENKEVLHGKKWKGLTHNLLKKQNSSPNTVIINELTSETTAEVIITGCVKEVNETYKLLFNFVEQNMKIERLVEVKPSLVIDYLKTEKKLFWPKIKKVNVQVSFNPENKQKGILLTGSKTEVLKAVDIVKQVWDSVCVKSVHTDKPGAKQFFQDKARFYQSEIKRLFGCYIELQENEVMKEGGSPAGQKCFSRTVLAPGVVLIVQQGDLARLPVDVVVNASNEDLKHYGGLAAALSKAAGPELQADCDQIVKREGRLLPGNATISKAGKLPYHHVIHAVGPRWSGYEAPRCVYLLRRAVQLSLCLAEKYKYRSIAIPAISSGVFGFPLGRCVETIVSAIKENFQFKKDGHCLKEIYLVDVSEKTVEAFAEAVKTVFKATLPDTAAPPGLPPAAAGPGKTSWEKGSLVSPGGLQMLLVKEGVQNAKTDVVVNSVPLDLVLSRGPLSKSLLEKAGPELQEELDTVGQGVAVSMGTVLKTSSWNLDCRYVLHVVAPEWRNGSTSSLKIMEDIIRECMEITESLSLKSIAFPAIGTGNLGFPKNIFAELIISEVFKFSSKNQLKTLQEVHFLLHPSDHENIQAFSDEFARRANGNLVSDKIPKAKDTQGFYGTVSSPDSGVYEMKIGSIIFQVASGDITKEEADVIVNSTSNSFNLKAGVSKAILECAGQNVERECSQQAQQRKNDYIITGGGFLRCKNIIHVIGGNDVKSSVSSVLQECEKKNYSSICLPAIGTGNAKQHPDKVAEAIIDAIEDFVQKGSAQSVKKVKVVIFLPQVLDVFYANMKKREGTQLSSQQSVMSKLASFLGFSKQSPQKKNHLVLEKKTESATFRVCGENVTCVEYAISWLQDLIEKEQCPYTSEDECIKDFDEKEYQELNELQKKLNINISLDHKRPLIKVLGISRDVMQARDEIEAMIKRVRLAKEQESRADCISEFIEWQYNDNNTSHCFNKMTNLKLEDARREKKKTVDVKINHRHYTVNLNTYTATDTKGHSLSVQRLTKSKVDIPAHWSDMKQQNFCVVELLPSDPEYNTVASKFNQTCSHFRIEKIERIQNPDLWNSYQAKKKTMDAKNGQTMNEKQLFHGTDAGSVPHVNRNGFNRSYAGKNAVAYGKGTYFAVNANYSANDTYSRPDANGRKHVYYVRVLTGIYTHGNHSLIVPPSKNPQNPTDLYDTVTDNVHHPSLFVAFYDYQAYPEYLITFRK

IC50 values for PARP1 and -2 lower than those for other family members (PARP1 [1])	Km (PARP14)	Structure (SMILES)	Km (PARP2)	Km (PARP1 [2]; PARP1 ART row)	Km (PARP1 [2]; PARP1 FL row)	Km (PARP16)	Km (PARP10)
> 100 fold	–	C[C@]1(c2nc3c(C(N)=O)cccc3[nH]2)CCCN1 [Veliparib]	–	–	–	–	–
–	62 ± 7 µM	NC(=O)c1ccc[n+]([C@@H]2O[C@H](COP(=O)([O-])OP(=O)(O)OC[C@H]3O[C@@H](n4cnc5c(N)ncnc54)[C@H](O)[C@@H]3O)[C@@H](O)[C@H]2O)c1 [NAD+, nicotinamide adenine dinucleotide]	130 µM	30 to 130 µM	50 µM	280 µM	50 µM
